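Assay format: 96-well plates, 48-hour exposure. Abbreviation: GI50, concentration required for 50% inhibition of growth.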 Activity calls are given as the source filed them. Rule as the data show it: active = GI50 up to about 1.1 µM and inactive = higher.
Experiments:
Assay in all cases: NCI anticancer screen, dose series, 48 h
[1] = system: M14
[2] = system: DMS-273
[3] = system: DLD-1
[4] = system: NCI-H522
[5] = system: LOX IMVI
[6] = system: NCI-H226
[7] = system: NCI-H460
[8] = system: SF-539
[9] = system: RPMI-8226
[10] = system: KM-20L2
[11] = system: Malme-3M
[12] = system: SF-268
[13] = system: KM12
[14] = system: HOP-62
[15] = system: OVCAR-5
[16] = system: SR
[17] = system: HL-60
[18] = system: UO-31
[19] = system: RXF 631
[20] = system: K562
[21] = system: SK-MEL-28
[22] = system: OVCAR-4
[23] = system: EKVX
[24] = system: OVCAR-8
[25] = system: RXF 393
[26] = system: HOP-18
[27] = system: OVCAR-3
[28] = system: M19-MEL
[29] = system: HCC 2998
[30] = system: MOLT-4
[31] = system: NCI-H23
[32] = system: SNB-75
[33] = system: U-251
[34] = system: HCT-116
[35] = system: CCRF-CEM
[36] = system: ACHN
[37] = system: HCT-15
[38] = system: SNB-78
[39] = system: CAKI-1
[40] = system: SK-MEL-5
[41] = system: UACC-62
[42] = system: DMS-114
[43] = system: SK-OV-3
[44] = system: SF-295
[45] = system: UACC-257
[46] = system: HOP-92
[47] = system: COLO 205
[48] = system: SK-MEL-2
[49] = system: A549
[50] = system: LXFL 529
[51] = system: TK-10
[52] = system: SW-620
[53] = system: 786-0
[54] = system: SNB-19
[55] = system: SN12C
[56] = system: HT-29
[57] = system: A498
[58] = system: XF498
[59] = system: IGROV-1

CCOC(=O)/C(=C\c1cccs1)P(=O)(OCC)OCC
GI50 [1]: 16.1 µM (inactive) | GI50 [2]: 34.6 µM (inactive) | GI50 [3]: 21.2 µM (inactive) | GI50 [4]: 14.2 µM (inactive) | GI50 [5]: 15.7 µM (inactive) | GI50 [6]: 18.7 µM (inactive) | GI50 [7]: 20.1 µM (inactive) | GI50 [8]: 20.8 µM (inactive) | GI50 [9]: 20.4 µM (inactive) | GI50 [10]: 21.9 µM (inactive) | GI50 [11]: 22.7 µM (inactive) | GI50 [12]: 24.1 µM (inactive) | GI50 [13]: 17.1 µM (inactive) | GI50 [14]: 48.2 µM (inactive) | GI50 [15]: 21.9 µM (inactive) | GI50 [16]: 19.1 µM (inactive) | GI50 [17]: 13.9 µM (inactive) | GI50 [18]: 19.7 µM (inactive) | GI50 [19]: 55.8 µM (inactive) | GI50 [20]: 29.9 µM (inactive) | GI50 [21]: 17.2 µM (inactive) | GI50 [22]: 19 µM (inactive) | GI50 [23]: 23.8 µM (inactive) | GI50 [24]: 25.4 µM (inactive) | GI50 [25]: 15.1 µM (inactive) | GI50 [26]: 31.3 µM (inactive) | GI50 [27]: 19.8 µM (inactive) | GI50 [28]: 21.5 µM (inactive) | GI50 [29]: 18.4 µM (inactive) | GI50 [30]: 25.8 µM (inactive) | GI50 [31]: 18.9 µM (inactive) | GI50 [32]: 35.6 µM (inactive) | GI50 [33]: 20.2 µM (inactive) | GI50 [34]: 19.2 µM (inactive) | GI50 [35]: 29.9 µM (inactive) | GI50 [36]: 17.6 µM (inactive) | GI50 [37]: 17.5 µM | GI50 [38]: 49.3 µM (inactive) | GI50 [39]: 18.2 µM (inactive) | GI50 [40]: 17 µM (inactive) | GI50 [41]: 16.4 µM (inactive) | GI50 [42]: 21.5 µM (inactive) | GI50 [43]: 38.9 µM (inactive) | GI50 [44]: 29.4 µM (inactive) | GI50 [45]: 23.2 µM (inactive) | GI50 [46]: 27.6 µM (inactive) | GI50 [47]: 16 µM (inactive) | GI50 [48]: 16.4 µM (inactive) | GI50 [49]: 21 µM (inactive) | GI50 [50]: 18.6 µM (inactive) | GI50 [51]: 36.6 µM (inactive) | GI50 [52]: 20 µM (inactive) | GI50 [53]: 21.9 µM (inactive) | GI50 [54]: 53.2 µM (inactive) | GI50 [55]: 19.7 µM (inactive) | GI50 [56]: 20.6 µM (inactive)

O=C1c2ccccc2C(Br)(Br)c2ccccc21
GI50 [1]: > 31.6 µM (inactive) | GI50 [2]: > 31.6 µM (inactive) | GI50 [3]: > 31.6 µM (inactive) | GI50 [4]: 25.4 µM (inactive) | GI50 [5]: > 31.6 µM (inactive) | GI50 [6]: > 31.6 µM (inactive) | GI50 [7]: > 31.6 µM (inactive) | GI50 [8]: 57.8 µM (inactive) | GI50 [9]: > 10 µM (inactive) | GI50 [10]: > 100 µM (inactive) | GI50 [11]: > 31.6 µM (inactive) | GI50 [12]: 25.5 µM (inactive) | GI50 [13]: > 100 µM (inactive) | GI50 [14]: > 10 µM (inactive) | GI50 [15]: > 31.6 µM (inactive) | GI50 [16]: > 31.6 µM (inactive) | GI50 [17]: > 31.6 µM (inactive) | GI50 [18]: > 31.6 µM (inactive) | GI50 [20]: > 31.6 µM (inactive) | GI50 [21]: > 31.6 µM (inactive) | GI50 [22]: 1.16 µM (inactive) | GI50 [23]: > 100 µM (inactive) | GI50 [24]: > 100 µM (inactive) | GI50 [25]: 18.2 µM (inactive) | GI50 [26]: > 31.6 µM (inactive) | GI50 [27]: > 31.6 µM (inactive) | GI50 [28]: > 31.6 µM (inactive) | GI50 [29]: > 31.6 µM (inactive) | GI50 [30]: > 31.6 µM (inactive) | GI50 [31]: > 100 µM (inactive) | GI50 [32]: 14.9 µM (inactive) | GI50 [33]: > 31.6 µM (inactive) | GI50 [34]: > 31.6 µM (inactive) | GI50 [35]: > 31.6 µM (inactive) | GI50 [36]: > 31.6 µM (inactive) | GI50 [37]: > 31.6 µM | GI50 [38]: > 100 µM (inactive) | GI50 [39]: > 10 µM (inactive) | GI50 [40]: > 31.6 µM (inactive) | GI50 [41]: > 100 µM (inactive) | GI50 [42]: > 31.6 µM (inactive) | GI50 [57]: > 10 µM (inactive) | GI50 [43]: > 31.6 µM (inactive) | GI50 [44]: > 31.6 µM (inactive) | GI50 [45]: > 100 µM (inactive) | GI50 [46]: > 100 µM (inactive) | GI50 [47]: > 31.6 µM (inactive) | GI50 [48]: > 31.6 µM (inactive) | GI50 [49]: > 31.6 µM (inactive) | GI50 [50]: > 31.6 µM (inactive) | GI50 [51]: > 100 µM (inactive) | GI50 [52]: > 31.6 µM (inactive) | GI50 [53]: > 31.6 µM (inactive) | GI50 [54]: > 31.6 µM (inactive) | GI50 [55]: > 31.6 µM (inactive) | GI50 [56]: > 100 µM (inactive) | GI50 [58]: 29.3 µM (inactive) | GI50 [59]: > 31.6 µM (inactive)

From ChEMBL document CHEMBL1201862, “PubChem BioAssay data set” (2004)
